Values of other authors in article PMC3314724 (Journal of Molecular Modeling, 2011).

Legend:
[1] = system: FPR1; settings: FPR1 agonist class, peptide derivatives
[2] = system: human neutrophils

| Substance | Observed value (activity class) [1] | EC50 [2] [nM] |
| --- | --- | --- |
| N-formyl-Met-Leu-Phe-OMe [fMLF-OMe] | Active | – |
| N-formyl-Met-Leu-Ψ(COO) Phe-NHBzl [fMLΨ(COO)F-NHBzl] | Active | – |
| boc-cis-4-mer-captomethyl-Pro-Leu-Phe-OMe [boc-cis-4-mercaptomethyl-PLF-OMe] | Active | – |
| N-formyl-Met-Leu-Phe [fMLF] | Active | ~0.5 |
